26 compounds from ChEMBL document CHEMBL2177022, “Novel acidic 11β-hydroxysteroid dehydrogenase type 1 (11β-HSD1) inhibitor with reduced acyl glucuronide liability: the discovery of 4-[4-(2-adamantylcarbamoyl)-5-tert-butyl-pyrazol-1-yl]benzoic acid (AZD8329)” (J Med Chem, 2012) can be followed below.

Each structure is given as a SMILES string.

As usually defined, the logD is the decadic logarithm of the distribution of all forms, ionised or not, between an organic phase and buffer at a given pH. Broadly, the bioavailability is dose-corrected exposure relative to a reference, in per cent. As usually defined, the fraction unbound is the share of the substance not bound to proteins or other matrix. In general, hepatocyte CLint refers to the rate of metabolic loss divided by the concentration. One may read the clearance as the volume of plasma or blood freed of the substance per unit of time. In general, IC50 refers to the point on the concentration scale where inhibition reaches its midpoint.

The nature of series [1]: Lipophilicity, log D at pH 7.4 by shake flask method. To be noted: buffer.
A short description of series [2]: Oral bioavailability in rat. It is filed as ADME, organism-based. To be noted: in vivo.
Series [3] can be described thus: Percentage unbound in rat plasma at 37 degC by equilibrium dialysis method. It is filed as ADME, cell-free. In general terms: Equilibrium dialysis compares concentrations on both sides of a semipermeable membrane.
Series [4] in a line: Intrinsic clearance in rat hepatocytes assessed per 10^6 cells.
A short description of series [5]: in vivo. To be noted: rat.
A short description of series [6]: Drug metabolism in bile duct cannulated rat urine assessed as oxidative metabolism level during 0 to 6 hrs post dose by metabolism-ID study. The class given is ADME, tissue-based. To be noted: in vivo.
A short description of series [7]: Stability in bile duct cannulated rat urine assessed as parent compound remaining measured during 0 to 6 hrs post dose. It is filed as ADME, tissue-based. To be noted: in vivo.
Series [8] in a line: Inhibition of N-terminal 6-His tagged full length cynomolgus monkey 11betaHSD1 incubated for 25 mins by HTRF assay. Set-up: species or system Macaca fascicularis.
The nature of series [9]: Drug metabolism in dog hepatocytes assessed as oxidative metabolism level by metabolism-ID study. The class given is ADME, cell-based, Canis lupus familiaris, Hepatocyte.
Series [10] in a line: Stability in bile duct cannulated rat bile assessed as parent compound remaining measured during 0 to 6 hrs post dose. The class given is ADME. To be noted: in vivo.
A short description of series [11]: Drug metabolism in bile duct cannulated rat urine assessed as ratio of glucuronidation to oxidative metabolism level during 0 to 6 hrs post dose by metabolism-ID study. It is filed as ADME, tissue-based. To be noted: in vivo.
The nature of series [12]: Drug metabolism in dog hepatocytes assessed as ratio of glucuronidation to oxidative metabolism level by metabolism-ID study. The class given is ADME, cell-based, Canis lupus familiaris, Hepatocyte.
The subject of series [13] is Hepatocyte. Description: Drug metabolism in rat hepatocytes assessed as ratio of glucuronidation to oxidative metabolism level by metabolism-ID study. The class given is ADME, cell-based.
Series [14] relates to Hepatocyte. The series is described as follows: Drug metabolism in human hepatocytes assessed as ratio of glucuronidation to oxidative metabolism level by metabolism-ID study. The class given is ADME, cell-based.
The nature of series [15]: Drug metabolism in bile duct cannulated rat bile assessed as oxidative metabolism level during 0 to 6 hrs post dose by metabolism-ID study. The class given is ADME. To be noted: in vivo.
The nature of series [16]: Drug metabolism in bile duct cannulated rat bile assessed as ratio of glucuronidation to oxidative metabolism level during 0 to 6 hrs post dose by metabolism-ID study. It is filed as ADME. To be noted: in vivo.
Series [17] is described as follows: Inhibition of N-terminal 6-His tagged full length dog 11betaHSD1 incubated for 25 mins by HTRF assay. The arrangement: species or system Canis lupus familiaris.

`CC(C)c1c(C(=O)NC2C3CC4CC(C3)CC2C4)cnn1-c1ccc(C(=O)O)cc1` (centres undefined) yielded a logD in [1] of 1.2. Moreover, the bioavailability in series [2] was 53%. In series [3], this compound had an unbound share (fraction unbound) of 0.036. The compound further gave a hepatocyte CLint in series [4] of less than 2 µL/min/1e6 cells. The same compound returned a clearance in series [5] of 2.2 mL/min/kg.
Taken in the same sequence, the figures for `CCCSc1c(C(=O)NC2CCCCC2)cnn1-c1cccc(C(=O)O)c1` were 0.7, greater than 100%, 0.02, 17 µL/min/1e6 cells and 17 mL/min/kg.
As for `Cc1c(C(=O)NC2C3CC4CC(C3)CC2C4)cnn1-c1ccc(C(=O)O)cc1` (centres undefined), the bioavailability in series [2] was greater than 100%. In series [3], this compound yielded an unbound share (fraction unbound) of 0.127. The same compound registered a hepatocyte CLint in series [4] of less than 3 µL/min/1e6 cells. The clearance in [5] turned out to be 8 mL/min/kg.
Consider `CCCSc1c(C(=O)NC2CCCCC2)cnn1C`, for which the log distribution coefficient (logD) in series [1] is 3. The compound further had a bioavailability in [2] of 0%. The compound further came in with a fraction unbound in series [3] of 0.132.
Compound `CCCSc1c(C(=O)N[C@H]2C3CC4CC2C[C@](O)(C4)C3)cnn1-c1ccc(C(=O)O)cc1` yielded a logD in series [1] of -0.4. Also, in [2], the bioavailability amounted to 10%. Besides, the fraction unbound in series [3] came to 0.105. In series [4], this compound showed a hepatocyte CLint of less than 2 µL/min/1e6 cells. This compound returned a clearance in series [5] of 20 mL/min/kg.
Taken in the same sequence, the figures for `O=C(O)c1ccc(-n2ncc(C(=O)NC3C4CC5CC(C4)CC3C5)c2SC2CCCC2)cc1` (centres undefined) were 2.6, 57%, 0.0015, 14 µL/min/1e6 cells and 3.3 mL/min/kg.
Taken in the same sequence, the figures for `CSc1c(C(=O)NC2C3CC4CC(C3)CC2C4)cnn1-c1ccc(C(=O)O)cc1` (centres undefined) were 1.2, 64%, 0.0336, less than 2 µL/min/1e6 cells and 11 mL/min/kg.
Taken in the same sequence, the figures for `CCCSc1c(C(=O)N(C)C2CCCCC2)cnn1-c1ccc(C(=O)O)cc1` were 0.6, 26%, 0.025, 26 µL/min/1e6 cells and 8.1 mL/min/kg.
With `CCCSc1c(C(=O)NC2CCCCC2)cnn1[C@H]1CC[C@H](C(=O)O)CC1`, the logD in series [1] came out at 1. Moreover, the bioavailability in series [2] turned out to be 100%. The compound also registered a free fraction (fraction unbound) in series [3] of 0.093. This compound registered a hepatocyte CLint in series [4] of 7.5 µL/min/1e6 cells. Further, the clearance in series [5] came to 2.5 mL/min/kg.
Take `O=C(O)c1ccc(-n2ncc(C(=O)NC3C4CC5CC(C4)CC3C5)c2C(F)(F)F)cc1` (centres undefined): the bioavailability in series [2] was greater than 100%. The fraction unbound in series [3] stood at 0.045.
Consider `CCCSc1nc(N2CCC[C@@H](CC(=O)O)C2)ccc1C(=O)NC1CCCCC1` [AZD-4017], for which the Drug metabolism in series [6] is 28%; in series [9], 13%; in series [15], 10%. The Stability was determined as 4% in series [7] and 15% in [10]. The IC50 in series [8] is 0.029 µM; in series [17] it was 3.77 µM. Further, the Ratio in series [11] amounted to 2.4; in [12], 4.1; in [13] it was 2.1; in series [14] it was 6; in [16] it was 7.5.
In turn, `O=C(O)c1ccc(-n2ncc(C(=O)NC3C4CC5CC(C4)CC3C5)c2C2CCC2)cc1` (centres undefined) displayed a bioavailability in [2] greater than 100%. This compound gave a fraction unbound in series [3] of 0.012. In [4], this compound returned a hepatocyte CLint of less than 3 µL/min/1e6 cells. Moreover, the clearance in series [5] was 1.3 mL/min/kg.
For `O=C(O)c1ccc(-n2ncc(C(=O)NC3C4CC5CC(C4)CC3C5)c2C2CC2)cc1` (centres undefined), in series [1], the pH-dependent lipophilicity (logD) is 0.9. In series [2], this compound came in with a bioavailability of 51%. The fraction unbound in series [3] came to 0.045. The compound further displayed a hepatocyte CLint in series [4] of 15 µL/min/1e6 cells. Also, the clearance in series [5] is 14 mL/min/kg.
`CCCSc1c(C(=O)NC2CCCCC2)cnn1[C@H]1CC[C@@H](C(=O)O)CC1`: in series [1], the logD was 1.4. Besides, in [2], the bioavailability was 49%. In addition, the hepatocyte CLint in [4] is 58 µL/min/1e6 cells. In series [5], this compound came in with a clearance of 43 mL/min/kg.
Regarding `CCCSc1c(C(=O)N[C@H]2C3CC4CC2C[C@](S(C)(=O)=O)(C4)C3)cnn1-c1ccc(C(=O)O)cc1`, in series [1], the logD is less than 0.5. In series [2], the bioavailability worked out at 7%. In addition, in series [3], the fraction unbound is 0.134.
In [1], `CCSc1c(C(=O)NC2C3CC4CC(C3)CC2C4)cnn1-c1ccc(C(=O)O)cc1` (centres undefined) had a pH-dependent lipophilicity (logD) of 1.5. This compound also displayed a bioavailability in series [2] of 65%. Moreover, the free fraction (fraction unbound) in series [3] came to 0.0131. In addition, the intrinsic clearance (hepatocyte CLint) in [4] was determined as 6 µL/min/1e6 cells. The compound further returned a clearance in series [5] of 3 mL/min/kg.
For `O=C(O)c1ccc(-n2cc(C(=O)NC3C4CC5CC(C4)CC3C5)cn2)cc1` (centres undefined), the fraction unbound in series [3] worked out at 0.107. For the same compound, the hepatocyte CLint in series [4] was determined as 6.6 µL/min/1e6 cells.
`CCCSc1c(C(=O)N[C@H]2C3CC4CC2C[C@](OC)(C4)C3)cnn1-c1ccc(C(=O)O)cc1` displayed a logD in [1] of less than 0.5. In series [2], this compound registered a bioavailability of 54%. For the same compound, the fraction unbound in [3] was 0.285. This compound had a hepatocyte CLint in series [4] of less than 2 µL/min/1e6 cells. Moreover, in series [5], the clearance was determined as 13 mL/min/kg.
With `CCc1c(C(=O)NC2C3CC4CC(C3)CC2C4)cnn1-c1ccc(C(=O)O)cc1` (centres undefined), the logD in [1] worked out at 0.9. In series [2], this compound had a bioavailability greater than 100%. Further, in series [3], the fraction unbound amounted to 0.06.
Taken in the same sequence, the figures for `CCCSc1c(C(=O)NC2C3CC4CC(C3)CC2C4)cnn1-c1ccc(C(=O)O)cc1` (centres undefined) were 1.8, 45% and 0.005.
For the compound `O=C(O)c1ccc(-n2ncc(C(=O)NC3C4CC5CC(C4)CC3C5)c2C2CCCC2)cc1` (centres undefined), the logD in [1] turned out to be 1.7. The compound also gave a bioavailability in [2] greater than 100%. In addition, in series [3], the fraction unbound came to 0.004.
In turn, `CCCSc1c(C(=O)NC2CCCCC2)cnn1-c1ccc(C(=O)O)cc1` yielded a logD in series [1] of 0.6. This compound gave a bioavailability in [2] of 72%. The fraction unbound in series [3] was 0.04. Also, in [4], the hepatocyte CLint was less than 3 µL/min/1e6 cells. The compound further returned a clearance in series [5] of 4.5 mL/min/kg.
In [1], `CCCSc1ncccc1C(=O)NC1CCCCC1` yielded a logD of 3.2.
`CC1(c2c(C(=O)NC3C4CC5CC(C4)CC3C5)cnn2-c2ccc(C(=O)O)cc2)CC1` (centres undefined) gave a logD in series [1] of 1.1. In series [2], the bioavailability is greater than 100%. Moreover, in series [3], the unbound share (fraction unbound) was determined as 0.033. Also, in [4], the hepatocyte CLint was 11 µL/min/1e6 cells. In series [5], this compound registered a clearance of 19 mL/min/kg.
Taken in the same sequence, the figures for `CCCSc1c(C(=O)N[C@H]2C3CC4CC2C[C@](OC(F)F)(C4)C3)cnn1-c1ccc(C(=O)O)cc1` were 1.2, 40%, 0.026, 18 µL/min/1e6 cells and 9.4 mL/min/kg.
Taken in the same sequence, the figures for `O=C(O)c1ccc(-n2ncc(C(=O)NC3C4CC5CC(C4)CC3C5)c2SC2CCCCC2)cc1` (centres undefined) were 3, 82%, 0.0013, 9.4 µL/min/1e6 cells and 3.6 mL/min/kg.
